Experiment: Solubility of testosterone in tetrahydrofuran
Assay type: physicochemical

## C[C@]12CC[C@H]3[C@@H](CCC4=CC(=O)CC[C@@]43C)[C@@H]1CC[C@@H]2O [testosterone, 17β-hydroxyandrost-4-en-3-one]
  solubility of testosterone in THF: ~27 % m/m
